Measured values published in PubChem BioAssay (NCI).
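Five concentrations, 48 hours, 96-well plates. TGI marks complete inhibition of growth.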

Assays:
Experiment in all cases: inhibition of tumour cell growth, NCI panel, 48 h
OVCAR-4 ovarian = test system: OVCAR-4 ovarian
HOP-18 NSCLC = test system: HOP-18 NSCLC
DMS 114 small cell lung = test system: DMS 114 small cell lung
SK-MEL-5 melanoma = test system: SK-MEL-5 melanoma
NCI-H460 lung = test system: NCI-H460 lung
SF-539 CNS = test system: SF-539 CNS
HCT-116 colon = test system: HCT-116 colon
LOX IMVI melanoma = test system: LOX IMVI melanoma
UACC-257 melanoma = test system: UACC-257 melanoma
NCI-H226 lung = test system: NCI-H226 lung
U251 CNS = test system: U251 CNS
A549 NSCLC = test system: A549 NSCLC
ACHN renal = test system: ACHN renal
SN12C renal = test system: SN12C renal
HOP-92 NSCLC = test system: HOP-92 NSCLC
OVCAR-5 ovarian = test system: OVCAR-5 ovarian
NCI-H522 lung = test system: NCI-H522 lung
DLD-1 colon = test system: DLD-1 colon
SNB-75 CNS = test system: SNB-75 CNS
OVCAR-3 ovarian = test system: OVCAR-3 ovarian
HCC-2998 colon = test system: HCC-2998 colon
LXFL 529 NSCLC = test system: LXFL 529 NSCLC
OVCAR-8 ovarian = test system: OVCAR-8 ovarian
KM12 colon = test system: KM12 colon
KM20L2 colon = test system: KM20L2 colon
XF 498 CNS = test system: XF 498 CNS
UO-31 renal = test system: UO-31 renal
786-0 renal = test system: 786-0 renal
HL-60(TB) leukemia = test system: HL-60(TB) leukemia
COLO 205 colon = test system: COLO 205 colon
NCI-H23 lung = test system: NCI-H23 lung
TK-10 renal = test system: TK-10 renal
HT29 colon = test system: HT29 colon
SW-620 colon = test system: SW-620 colon
DMS 273 small cell lung = test system: DMS 273 small cell lung
MALME-3M melanoma = test system: MALME-3M melanoma
CAKI-1 renal = test system: CAKI-1 renal
SNB-78 CNS = test system: SNB-78 CNS
M14 melanoma = test system: M14 melanoma
SF-268 CNS = test system: SF-268 CNS
SK-MEL-2 melanoma = test system: SK-MEL-2 melanoma
SNB-19 CNS = test system: SNB-19 CNS
SK-MEL-28 melanoma = test system: SK-MEL-28 melanoma
HOP-62 NSCLC = test system: HOP-62 NSCLC
M19-MEL melanoma = test system: M19-MEL melanoma
SF-295 CNS = test system: SF-295 CNS
EKVX NSCLC = test system: EKVX NSCLC
RXF 393 renal = test system: RXF 393 renal
IGROV1 ovarian = test system: IGROV1 ovarian
UACC-62 melanoma = test system: UACC-62 melanoma
CCRF-CEM leukemia = test system: CCRF-CEM leukemia
T-47D breast = test system: T-47D breast
MOLT-4 leukemia = test system: MOLT-4 leukemia
K-562 leukemia = test system: K-562 leukemia
MDA-MB-435 = test system: MDA-MB-435
RPMI-8226 leukemia = test system: RPMI-8226 leukemia
MCF7 breast = test system: MCF7 breast
NCI/ADR-RES ovarian = test system: NCI/ADR-RES ovarian
BT-549 breast = test system: BT-549 breast
HCT-15 colon = test system: HCT-15 colon
MDA-MB-231 breast = test system: MDA-MB-231 breast
HS 578T breast = test system: HS 578T breast
MDA-N = test system: MDA-N
SR leukemia = test system: SR leukemia
PC-3 prostate = test system: PC-3 prostate
A498 renal = test system: A498 renal
SK-OV-3 ovarian = test system: SK-OV-3 ovarian
DU-145 prostate = test system: DU-145 prostate

SMILES: [N-]=[N+]=N[C@H]1C[C@@H](CO)O[C@H]1n1cnc2c(N)ncnc21
- TGI (OVCAR-4 ovarian): > 100 µM
- TGI (HOP-18 NSCLC): > 100 µM
- TGI (DMS 114 small cell lung): > 100 µM
- TGI (SK-MEL-5 melanoma): > 100 µM
- TGI (NCI-H460 lung): > 100 µM
- TGI (SF-539 CNS): > 100 µM
- TGI (HCT-116 colon): > 100 µM
- TGI (LOX IMVI melanoma): > 100 µM
- TGI (UACC-257 melanoma): > 100 µM
- TGI (NCI-H226 lung): > 100 µM
- TGI (U251 CNS): > 100 µM
- TGI (A549 NSCLC): > 100 µM
- TGI (ACHN renal): > 100 µM
- TGI (SN12C renal): > 100 µM
- TGI (HOP-92 NSCLC): > 100 µM
- TGI (OVCAR-5 ovarian): > 100 µM
- TGI (NCI-H522 lung): > 100 µM
- TGI (DLD-1 colon): > 100 µM
- TGI (SNB-75 CNS): > 100 µM
- TGI (OVCAR-3 ovarian): > 100 µM
- TGI (HCC-2998 colon): > 100 µM
- TGI (LXFL 529 NSCLC): > 100 µM
- TGI (OVCAR-8 ovarian): > 100 µM
- TGI (KM12 colon): > 100 µM
- TGI (KM20L2 colon): > 100 µM
- TGI (XF 498 CNS): > 100 µM
- TGI (UO-31 renal): > 100 µM
- TGI (786-0 renal): > 100 µM
- TGI (HL-60(TB) leukemia): > 100 µM
- TGI (COLO 205 colon): > 100 µM
- TGI (NCI-H23 lung): > 100 µM
- TGI (TK-10 renal): > 100 µM
- TGI (HT29 colon): > 100 µM
- TGI (SW-620 colon): > 100 µM
- TGI (DMS 273 small cell lung): > 100 µM
- TGI (MALME-3M melanoma): > 100 µM
- TGI (CAKI-1 renal): > 100 µM
- TGI (SNB-78 CNS): > 100 µM
- TGI (M14 melanoma): > 100 µM
- TGI (SF-268 CNS): > 100 µM
- TGI (SK-MEL-2 melanoma): > 100 µM
- TGI (SNB-19 CNS): > 100 µM
- TGI (SK-MEL-28 melanoma): > 100 µM
- TGI (HOP-62 NSCLC): > 100 µM
- TGI (M19-MEL melanoma): > 100 µM
- TGI (SF-295 CNS): > 100 µM
- TGI (EKVX NSCLC): > 100 µM

SMILES: COc1cc2c(c(OC)c1OC)-c1ccc(SC)c(=O)cc1C(NC=O)CC2 (configuration not stated)
- TGI (OVCAR-4 ovarian): > 100 µM
- TGI (HOP-18 NSCLC): > 100 µM
- TGI (DMS 114 small cell lung): < 0.01 µM
- TGI (RXF 393 renal): > 67.9 µM
- TGI (SK-MEL-5 melanoma): < 0.01 µM
- TGI (SF-539 CNS): < 0.0464 µM
- TGI (LOX IMVI melanoma): > 41.1 µM
- TGI (UACC-257 melanoma): > 84.8 µM
- TGI (NCI-H226 lung): 0.754 µM
- TGI (U251 CNS): 5.68 µM
- TGI (A549 NSCLC): > 83.4 µM
- TGI (IGROV1 ovarian): > 85.5 µM
- TGI (UACC-62 melanoma): > 100 µM
- TGI (CCRF-CEM leukemia): > 74.8 µM
- TGI (ACHN renal): > 100 µM
- TGI (SN12C renal): > 89.5 µM
- TGI (T-47D breast): > 100 µM
- TGI (HOP-92 NSCLC): > 100 µM
- TGI (MOLT-4 leukemia): 48.9 µM
- TGI (K-562 leukemia): > 77.2 µM
- TGI (OVCAR-5 ovarian): > 94.3 µM
- TGI (MDA-MB-435): < 0.01 µM
- TGI (NCI-H522 lung): < 0.01 µM
- TGI (RPMI-8226 leukemia): 47.1 µM
- TGI (MCF7 breast): 42 µM
- TGI (DLD-1 colon): > 100 µM
- TGI (SNB-75 CNS): > 21.5 µM
- TGI (OVCAR-3 ovarian): 2.33 µM
- TGI (HCC-2998 colon): > 100 µM
- TGI (OVCAR-8 ovarian): > 68.5 µM
- TGI (NCI/ADR-RES ovarian): 0.273 µM
- TGI (BT-549 breast): > 100 µM
- TGI (KM12 colon): < 0.0138 µM
- TGI (KM20L2 colon): < 0.01 µM
- TGI (XF 498 CNS): > 100 µM
- TGI (UO-31 renal): > 100 µM
- TGI (786-0 renal): > 100 µM
- TGI (HL-60(TB) leukemia): 0.0492 µM
- TGI (HCT-15 colon): > 37.4 µM
- TGI (MDA-MB-231 breast): > 4.64 µM
- TGI (HS 578T breast): > 75.5 µM
- TGI (MDA-N): < 0.01 µM
- TGI (SR leukemia): 36.6 µM
- TGI (PC-3 prostate): > 100 µM
- TGI (COLO 205 colon): < 0.01 µM
- TGI (NCI-H23 lung): 50 µM
- TGI (TK-10 renal): > 100 µM
- TGI (HT29 colon): 1.1 µM
- TGI (A498 renal): 1.76 µM
- TGI (SW-620 colon): > 100 µM
- TGI (DMS 273 small cell lung): > 100 µM
- TGI (MALME-3M melanoma): > 83 µM
- TGI (CAKI-1 renal): > 83 µM
- TGI (SNB-78 CNS): > 100 µM
- TGI (M14 melanoma): > 21.5 µM
- TGI (SK-OV-3 ovarian): 63.9 µM
- TGI (SF-268 CNS): > 100 µM
- TGI (SK-MEL-2 melanoma): > 94.7 µM
- TGI (SNB-19 CNS): > 100 µM
- TGI (SK-MEL-28 melanoma): > 100 µM
- TGI (DU-145 prostate): < 0.01 µM
- TGI (HOP-62 NSCLC): > 90.8 µM
- TGI (M19-MEL melanoma): > 100 µM
- TGI (SF-295 CNS): 0.123 µM
- TGI (EKVX NSCLC): > 85.2 µM

SMILES: Cc1ccc(NC(=O)CCc2cc(C(C)(C)C)nc(=S)[nH]2)cc1C
- TGI (HOP-18 NSCLC): > 100 µM
- TGI (DMS 114 small cell lung): > 100 µM
- TGI (RXF 393 renal): > 100 µM
- TGI (SK-MEL-5 melanoma): > 100 µM
- TGI (NCI-H460 lung): > 100 µM
- TGI (SF-539 CNS): > 100 µM
- TGI (HCT-116 colon): > 100 µM
- TGI (LOX IMVI melanoma): > 100 µM
- TGI (UACC-257 melanoma): > 100 µM
- TGI (NCI-H226 lung): > 100 µM
- TGI (U251 CNS): > 100 µM
- TGI (A549 NSCLC): > 100 µM
- TGI (IGROV1 ovarian): > 100 µM
- TGI (UACC-62 melanoma): > 100 µM
- TGI (CCRF-CEM leukemia): > 100 µM
- TGI (ACHN renal): > 100 µM
- TGI (SN12C renal): > 100 µM
- TGI (HOP-92 NSCLC): > 100 µM
- TGI (MOLT-4 leukemia): > 100 µM
- TGI (K-562 leukemia): > 100 µM
- TGI (OVCAR-5 ovarian): > 100 µM
- TGI (NCI-H522 lung): > 100 µM
- TGI (RPMI-8226 leukemia): > 100 µM
- TGI (SNB-75 CNS): > 100 µM
- TGI (OVCAR-3 ovarian): > 100 µM
- TGI (HCC-2998 colon): > 100 µM
- TGI (LXFL 529 NSCLC): > 100 µM
- TGI (OVCAR-8 ovarian): > 100 µM
- TGI (KM12 colon): > 100 µM
- TGI (KM20L2 colon): > 100 µM
- TGI (XF 498 CNS): > 100 µM
- TGI (UO-31 renal): > 100 µM
- TGI (786-0 renal): > 100 µM
- TGI (HL-60(TB) leukemia): > 100 µM
- TGI (HCT-15 colon): > 100 µM
- TGI (SR leukemia): > 100 µM
- TGI (COLO 205 colon): > 100 µM
- TGI (NCI-H23 lung): > 100 µM
- TGI (TK-10 renal): > 100 µM
- TGI (HT29 colon): > 100 µM
- TGI (A498 renal): > 100 µM
- TGI (SW-620 colon): > 100 µM
- TGI (DMS 273 small cell lung): > 100 µM
- TGI (MALME-3M melanoma): > 100 µM
- TGI (CAKI-1 renal): > 100 µM
- TGI (SNB-78 CNS): > 100 µM
- TGI (M14 melanoma): > 100 µM
- TGI (SK-OV-3 ovarian): > 100 µM
- TGI (SF-268 CNS): > 100 µM
- TGI (SK-MEL-2 melanoma): > 100 µM
- TGI (SNB-19 CNS): > 100 µM
- TGI (SK-MEL-28 melanoma): > 100 µM
- TGI (HOP-62 NSCLC): > 100 µM
- TGI (SF-295 CNS): > 100 µM
- TGI (EKVX NSCLC): > 100 µM
